Values of other authors in patent US20060062848A1, “Formulation comprising itraconazole” (Nektar Therapeutics UK Limited, priority 2004, published 2006).
Converted amounts (≈) assume the structure as drawn. Read-outs that look alike come from different tables or passages of the source.

For CCC(C)n1ncn(-c2ccc(N3CCN(c4ccc(OCC5CO[C@](Cn6cncn6)(c6ccc(Cl)cc6Cl)O5)cc4)CC3)cc2)c1=O (mixture of isomers) [itraconazole, (±) cis-4-[4-[4-[4-[[2-(2,4-dichlorphenyl)-2-(1H-1,2,4-triazol-1-ylmethyl)-1,3-dioxolan-4-yl]methoxy]phenyl]-1-piperazinyl]phenyl]-2,4-dihydro-2-(1-methylpropyl)-3H-1,2,4-triazol-3-one], the aqueous solubility (neutral pH) is listed as 0.001 µg/mL (≈ 0.00142 µM) and the aqueous solubility (pH 1) is listed as 6 µg/mL (≈ 8.5 µM).
